ChEMBL document CHEMBL1201862, “PubChem BioAssay data set” (2004)
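Dose response: 5 concentrations. Exposure: 48 h. Format: 96-well plates. Endpoint: linear interpolation; highest concentration if not reached. The concentration for 50% growth inhibition is given as GI50.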 Calls of active or inactive are those of the source. Rule as the data show it: active = GI50 up to about 1.1 µM and inactive = higher.

How the values were obtained:
Test in all cases: NCI anticancer screen, dose series, 48 h
[1] = system: A498
[2] = system: ACHN
[3] = system: CAKI-1
[4] = system: HCC 2998
[5] = system: HCT-15
[6] = system: K562
[7] = system: LXFL 529
[8] = system: NCI-H23
[9] = system: OVCAR-3
[10] = system: OVCAR-4
[11] = system: OVCAR-5
[12] = system: SF-539
[13] = system: SN12C
[14] = system: SNB-75
[15] = system: UACC-257
[16] = system: UO-31
[17] = system: COLO 205

Row | SMILES | GI50 [1] | GI50 [2] | GI50 [3] | GI50 [4] | GI50 [5] | GI50 [6] | GI50 [7] | GI50 [8] | GI50 [9] | GI50 [10] | GI50 [11] | GI50 [12] | GI50 [13] | GI50 [14] | GI50 [15] | GI50 [16] | GI50 [17]
1 | CC/C(C)=C1\CCC(CN(C)C)C1=O (configuration not stated) | 20.6 µM (inactive) | 18.9 µM (inactive) | 1.91 µM (inactive) | 25.2 µM (inactive) | 15.8 µM | 20 µM (inactive) | 16.3 µM (inactive) | 21.2 µM (inactive) | 19.1 µM (inactive) | 17.6 µM (inactive) | 19.1 µM (inactive) | 18.7 µM (inactive) | 20.1 µM (inactive) | 16.3 µM (inactive) | 17.3 µM (inactive) | 20.2 µM (inactive) | –
2 | COC1=CC(=O)[C@H]2[C@H](C)C(c3ccccc3)[C@@]2(C)C1=O (some centres not stated) | > 100 µM (inactive) | > 100 µM (inactive) | > 100 µM (inactive) | > 100 µM (inactive) | > 100 µM | > 100 µM (inactive) | > 100 µM (inactive) | > 100 µM (inactive) | > 100 µM (inactive) | > 100 µM (inactive) | > 100 µM (inactive) | > 100 µM (inactive) | – | > 100 µM (inactive) | – | > 100 µM (inactive) | > 100 µM (inactive)
3 | C=CCN1COc2c(cc3c4c(cccc24)C(=O)O3)C1 | 21.5 µM (inactive) | > 10 µM (inactive) | 27.5 µM (inactive) | > 100 µM (inactive) | 29.2 µM | 15.5 µM (inactive) | 18.2 µM (inactive) | 21.4 µM (inactive) | 25.2 µM (inactive) | 68.1 µM (inactive) | 36.6 µM (inactive) | – | 21 µM (inactive) | 23.8 µM (inactive) | 26.4 µM (inactive) | 23.1 µM (inactive) | 17.9 µM (inactive)
4 | O=C1/C(=C/c2cc(O)c(O)c(O)c2)Oc2cc(O)cc(OC3OC(CO)C(O)C(O)C3O)c21 (configuration not stated) | 23.9 µM (inactive) | 11.6 µM (inactive) | – | 39.2 µM (inactive) | 22.4 µM | 16.9 µM (inactive) | 14.6 µM (inactive) | 19.1 µM (inactive) | 14.9 µM (inactive) | 2.06 µM (inactive) | – | > 100 µM (inactive) | 17.3 µM (inactive) | > 100 µM (inactive) | – | 32.4 µM (inactive) | 22.2 µM (inactive)
5 | CCc1cccc(C(C)C)c1NC(=O)C(=O)C(C(=O)C(=O)OC)c1nc2ccccc2nc1O (configuration not stated) | > 100 µM (inactive) | > 100 µM (inactive) | > 100 µM (inactive) | > 100 µM (inactive) | > 100 µM | > 100 µM (inactive) | > 100 µM (inactive) | > 100 µM (inactive) | – | > 100 µM (inactive) | > 100 µM (inactive) | – | > 100 µM (inactive) | > 100 µM (inactive) | > 100 µM (inactive) | > 100 µM (inactive) | > 100 µM (inactive)
6 | CC(=O)/C=C1\CC(=O)Nc2ccccc2N1 | > 100 µM (inactive) | > 100 µM (inactive) | > 100 µM (inactive) | > 100 µM (inactive) | > 100 µM | > 100 µM (inactive) | > 100 µM (inactive) | > 100 µM (inactive) | – | > 100 µM (inactive) | > 100 µM (inactive) | > 100 µM (inactive) | > 100 µM (inactive) | > 100 µM (inactive) | > 100 µM (inactive) | > 100 µM (inactive) | –
7 | CCCc1cc(OC(=O)c2c(O)cc(OC)cc2CCC)cc(O)c1C(=O)O | 28.9 µM (inactive) | 27.9 µM (inactive) | – | 25.2 µM (inactive) | – | 32.5 µM (inactive) | 24.1 µM (inactive) | 18 µM (inactive) | 20.6 µM (inactive) | – | 35 µM (inactive) | 18 µM (inactive) | – | 27.5 µM (inactive) | 18.8 µM (inactive) | 13 µM (inactive) | 26.4 µM (inactive)
8 | C/N=C(\N=c1/ss/c(=N\C)n1C)N(C)C.[O-][Cl+3]([O-])([O-])O | 29.2 µM (inactive) | > 100 µM (inactive) | 78.2 µM (inactive) | > 100 µM (inactive) | – | 40.7 µM (inactive) | > 100 µM (inactive) | 54.6 µM (inactive) | 53.1 µM (inactive) | > 100 µM (inactive) | > 100 µM (inactive) | 79.1 µM (inactive) | > 100 µM (inactive) | > 100 µM (inactive) | 97.3 µM (inactive) | > 100 µM (inactive) | 28.2 µM (inactive)
9 | COc1cc2c(cc1OC)C1C=NC(C(=O)O)(C2)c2ccccc21 (configuration not stated) | > 100 µM (inactive) | – | > 100 µM (inactive) | > 10 µM (inactive) | > 100 µM | 23 µM (inactive) | > 100 µM (inactive) | > 100 µM (inactive) | > 100 µM (inactive) | > 100 µM (inactive) | > 100 µM (inactive) | > 100 µM (inactive) | > 100 µM (inactive) | > 100 µM (inactive) | > 100 µM (inactive) | > 10 µM (inactive) | > 100 µM (inactive)
10 | NC(CCc1nc(-c2ccccc2)cs1)C(=O)O (configuration not stated) | > 100 µM (inactive) | > 100 µM (inactive) | > 100 µM (inactive) | > 100 µM (inactive) | > 100 µM | > 100 µM (inactive) | > 100 µM (inactive) | > 100 µM (inactive) | > 100 µM (inactive) | – | – | > 100 µM (inactive) | > 100 µM (inactive) | 59.6 µM (inactive) | > 100 µM (inactive) | 75.2 µM (inactive) | > 100 µM (inactive)
11 | CCOC(=O)C1(C/C=C(/C)Cl)CCCC1=O (configuration not stated) | > 100 µM (inactive) | > 100 µM (inactive) | > 100 µM (inactive) | – | 26.7 µM | > 100 µM (inactive) | > 100 µM (inactive) | > 100 µM (inactive) | > 100 µM (inactive) | > 100 µM (inactive) | > 100 µM (inactive) | > 100 µM (inactive) | > 100 µM (inactive) | > 100 µM (inactive) | > 100 µM (inactive) | > 100 µM (inactive) | > 100 µM (inactive)
12 | O=C(CC1(O)C(=O)Nc2ccc(Br)cc21)c1ccc(Cl)cc1 (configuration not stated) | > 100 µM (inactive) | > 100 µM (inactive) | – | – | > 100 µM | 58.7 µM (inactive) | > 100 µM (inactive) | 67.6 µM (inactive) | > 100 µM (inactive) | 69.7 µM (inactive) | > 100 µM (inactive) | 50.7 µM (inactive) | 77.8 µM (inactive) | 16.3 µM (inactive) | 30.2 µM (inactive) | > 100 µM (inactive) | > 100 µM (inactive)
13 | COc1ccc2cc3[n+](cc2c1OC)CCc1cc(O)c(O)cc1-3 | > 100 µM (inactive) | – | > 100 µM (inactive) | – | > 100 µM | > 100 µM (inactive) | > 100 µM (inactive) | > 100 µM (inactive) | > 100 µM (inactive) | > 100 µM (inactive) | > 100 µM (inactive) | > 100 µM (inactive) | > 100 µM (inactive) | > 100 µM (inactive) | > 100 µM (inactive) | > 100 µM (inactive) | > 100 µM (inactive)
